Tests used:
[1] = tested on: ALK tyrosine kinase receptor (Homo sapiens), Q9UM73 [C1156Y]; settings: Compound concentration 1000.0 nM
[2] = molecular target: Aurora kinase A (Homo sapiens) (UniProt O14965); settings: Compound concentration 1000.0 nM
[3] = molecular target: Bone morphogenetic protein receptor type-1A (Homo sapiens) (UniProt P36894); settings: Compound concentration 1000.0 nM
[4] = molecular target: Calcium/calmodulin-dependent protein kinase type 1 (Homo sapiens) (UniProt Q14012); settings: Compound concentration 1000.0 nM
[5] = molecular target: Calcium/calmodulin-dependent protein kinase type IV (Homo sapiens) (UniProt Q16566); settings: Compound concentration 1000.0 nM
[6] = molecular target: Peripheral plasma membrane protein CASK (Homo sapiens) (UniProt O14936); settings: Compound concentration 1000.0 nM
[7] = molecular target: Serine/threonine-protein kinase Chk1 (Homo sapiens) (UniProt O14757); settings: Compound concentration 1000.0 nM
[8] = molecular target: Death-associated protein kinase 3 (Homo sapiens) (UniProt O43293); settings: Compound concentration 1000.0 nM
[9] = molecular target: Discoidin domain-containing receptor 2 (Homo sapiens) (UniProt Q16832); settings: Compound concentration 1000.0 nM
[10] = molecular target: Myotonin-protein kinase (Homo sapiens) (UniProt Q09013); settings: Compound concentration 1000.0 nM
[11] = molecular target: Dual specificity tyrosine-phosphorylation-regulated kinase 1B (Homo sapiens) (UniProt Q9Y463); settings: Compound concentration 1000.0 nM
[12] = molecular target: Ephrin type-B receptor 2 (Homo sapiens) (UniProt P29323); settings: Compound concentration 1000.0 nM
[13] = molecular target: Fibroblast growth factor receptor 2 (Homo sapiens) (UniProt P21802); settings: Compound concentration 1000.0 nM
[14] = molecular target: Tyrosine-protein kinase Fyn (Homo sapiens) (UniProt P06241); settings: Compound concentration 1000.0 nM
[15] = molecular target: G protein-coupled receptor kinase 4 (Homo sapiens) (UniProt P32298); settings: Compound concentration 1000.0 nM
[16] = molecular target: Homeodomain-interacting protein kinase 2 (Homo sapiens) (UniProt Q9H2X6); settings: Compound concentration 1000.0 nM
[17] = molecular target: Mast/stem cell growth factor receptor Kit (Homo sapiens) (UniProt P10721); settings: Compound concentration 1000.0 nM
Sequence of Mast/stem cell growth factor receptor Kit (Homo sapiens) (P10721 whole entry): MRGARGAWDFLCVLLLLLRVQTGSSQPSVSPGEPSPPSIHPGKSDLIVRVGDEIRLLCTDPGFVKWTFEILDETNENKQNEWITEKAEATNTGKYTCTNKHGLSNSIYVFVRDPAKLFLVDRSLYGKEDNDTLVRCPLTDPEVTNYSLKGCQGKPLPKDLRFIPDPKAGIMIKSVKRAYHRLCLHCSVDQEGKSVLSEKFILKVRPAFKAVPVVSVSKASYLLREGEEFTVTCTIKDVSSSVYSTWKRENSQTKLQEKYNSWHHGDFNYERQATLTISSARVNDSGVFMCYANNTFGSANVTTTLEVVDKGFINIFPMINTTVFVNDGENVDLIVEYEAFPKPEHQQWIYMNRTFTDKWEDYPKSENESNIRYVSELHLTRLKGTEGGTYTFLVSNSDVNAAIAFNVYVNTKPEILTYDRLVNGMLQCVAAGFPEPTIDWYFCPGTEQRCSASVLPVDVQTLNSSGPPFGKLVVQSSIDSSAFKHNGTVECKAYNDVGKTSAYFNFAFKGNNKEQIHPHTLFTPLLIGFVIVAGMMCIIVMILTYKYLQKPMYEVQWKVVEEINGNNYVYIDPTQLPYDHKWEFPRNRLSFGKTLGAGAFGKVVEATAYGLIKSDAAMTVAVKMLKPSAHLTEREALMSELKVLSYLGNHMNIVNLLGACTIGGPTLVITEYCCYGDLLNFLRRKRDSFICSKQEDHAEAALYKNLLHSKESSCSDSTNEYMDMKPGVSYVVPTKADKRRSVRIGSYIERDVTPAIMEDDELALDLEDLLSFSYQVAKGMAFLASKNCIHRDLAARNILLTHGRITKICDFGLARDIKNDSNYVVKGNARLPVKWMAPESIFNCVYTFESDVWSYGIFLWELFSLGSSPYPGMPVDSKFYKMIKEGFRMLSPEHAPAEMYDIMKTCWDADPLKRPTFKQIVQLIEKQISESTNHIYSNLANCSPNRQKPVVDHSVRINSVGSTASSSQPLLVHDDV

[18] = molecular target: Mitogen-activated protein kinase kinase kinase kinase 5 (Homo sapiens) (UniProt Q9Y4K4); settings: Compound concentration 1000.0 nM
[19] = molecular target: Dual specificity mitogen-activated protein kinase kinase 2 (Homo sapiens) (UniProt P36507); settings: Compound concentration 1000.0 nM
[20] = molecular target: Maternal embryonic leucine zipper kinase (Homo sapiens) (UniProt Q14680); settings: Compound concentration 1000.0 nM
Sequence of Maternal embryonic leucine zipper kinase (Homo sapiens) (Q14680 whole entry, looked up): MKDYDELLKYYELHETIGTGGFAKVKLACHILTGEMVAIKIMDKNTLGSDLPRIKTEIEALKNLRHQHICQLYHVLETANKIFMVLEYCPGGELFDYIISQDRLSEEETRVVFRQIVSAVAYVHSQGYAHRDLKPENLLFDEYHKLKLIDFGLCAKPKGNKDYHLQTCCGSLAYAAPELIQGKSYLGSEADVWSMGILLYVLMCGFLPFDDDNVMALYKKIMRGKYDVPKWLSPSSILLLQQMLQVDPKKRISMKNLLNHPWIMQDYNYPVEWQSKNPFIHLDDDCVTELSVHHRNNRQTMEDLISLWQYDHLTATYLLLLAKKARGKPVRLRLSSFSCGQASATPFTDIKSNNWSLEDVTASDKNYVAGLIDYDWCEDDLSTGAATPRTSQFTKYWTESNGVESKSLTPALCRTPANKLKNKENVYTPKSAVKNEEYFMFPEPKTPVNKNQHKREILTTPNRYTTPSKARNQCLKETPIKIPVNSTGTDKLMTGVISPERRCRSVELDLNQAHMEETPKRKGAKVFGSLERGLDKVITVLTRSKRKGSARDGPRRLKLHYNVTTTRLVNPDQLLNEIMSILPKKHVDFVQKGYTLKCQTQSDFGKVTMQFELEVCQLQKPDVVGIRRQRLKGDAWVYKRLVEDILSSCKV

[21] = molecular target: MAP kinase-interacting serine/threonine-protein kinase 1 (Homo sapiens) (UniProt Q9BUB5); settings: Compound concentration 1000.0 nM
Sequence of MAP kinase-interacting serine/threonine-protein kinase 1 (Homo sapiens) (Q9BUB5 whole entry, looked up): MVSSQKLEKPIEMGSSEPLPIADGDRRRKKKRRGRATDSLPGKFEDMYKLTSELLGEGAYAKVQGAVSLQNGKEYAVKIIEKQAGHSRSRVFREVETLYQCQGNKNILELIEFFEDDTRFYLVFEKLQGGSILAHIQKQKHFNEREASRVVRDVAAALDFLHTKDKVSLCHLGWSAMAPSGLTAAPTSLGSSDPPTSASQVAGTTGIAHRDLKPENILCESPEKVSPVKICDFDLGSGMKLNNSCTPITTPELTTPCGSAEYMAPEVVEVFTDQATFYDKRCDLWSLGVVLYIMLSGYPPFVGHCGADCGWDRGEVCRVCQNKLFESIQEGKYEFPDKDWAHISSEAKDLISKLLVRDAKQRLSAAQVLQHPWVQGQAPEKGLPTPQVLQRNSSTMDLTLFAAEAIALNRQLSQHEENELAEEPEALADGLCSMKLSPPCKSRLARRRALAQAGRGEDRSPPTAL

[22] = molecular target: Mitogen-activated protein kinase kinase kinase 10 (Homo sapiens) (UniProt Q02779); settings: Compound concentration 1000.0 nM
[23] = molecular target: Macrophage-stimulating protein receptor (Homo sapiens) (UniProt Q04912); settings: Compound concentration 1000.0 nM
[24] = molecular target: Serine/threonine-protein kinase 24 (Homo sapiens) (UniProt Q9Y6E0); settings: Compound concentration 1000.0 nM
[25] = molecular target: Serine/threonine-protein kinase mTOR (Homo sapiens) (UniProt P42345); settings: Compound concentration 1000.0 nM
[26] = molecular target: Myosin-IIIb (Homo sapiens) (UniProt Q8WXR4); settings: Compound concentration 1000.0 nM
[27] = molecular target: Serine/threonine-protein kinase 38 (Homo sapiens) (UniProt Q15208); settings: Compound concentration 1000.0 nM
[28] = molecular target: Platelet-derived growth factor receptor beta (Homo sapiens) (UniProt P09619); settings: Compound concentration 1000.0 nM
Sequence of Platelet-derived growth factor receptor beta (Homo sapiens) (P09619 whole entry): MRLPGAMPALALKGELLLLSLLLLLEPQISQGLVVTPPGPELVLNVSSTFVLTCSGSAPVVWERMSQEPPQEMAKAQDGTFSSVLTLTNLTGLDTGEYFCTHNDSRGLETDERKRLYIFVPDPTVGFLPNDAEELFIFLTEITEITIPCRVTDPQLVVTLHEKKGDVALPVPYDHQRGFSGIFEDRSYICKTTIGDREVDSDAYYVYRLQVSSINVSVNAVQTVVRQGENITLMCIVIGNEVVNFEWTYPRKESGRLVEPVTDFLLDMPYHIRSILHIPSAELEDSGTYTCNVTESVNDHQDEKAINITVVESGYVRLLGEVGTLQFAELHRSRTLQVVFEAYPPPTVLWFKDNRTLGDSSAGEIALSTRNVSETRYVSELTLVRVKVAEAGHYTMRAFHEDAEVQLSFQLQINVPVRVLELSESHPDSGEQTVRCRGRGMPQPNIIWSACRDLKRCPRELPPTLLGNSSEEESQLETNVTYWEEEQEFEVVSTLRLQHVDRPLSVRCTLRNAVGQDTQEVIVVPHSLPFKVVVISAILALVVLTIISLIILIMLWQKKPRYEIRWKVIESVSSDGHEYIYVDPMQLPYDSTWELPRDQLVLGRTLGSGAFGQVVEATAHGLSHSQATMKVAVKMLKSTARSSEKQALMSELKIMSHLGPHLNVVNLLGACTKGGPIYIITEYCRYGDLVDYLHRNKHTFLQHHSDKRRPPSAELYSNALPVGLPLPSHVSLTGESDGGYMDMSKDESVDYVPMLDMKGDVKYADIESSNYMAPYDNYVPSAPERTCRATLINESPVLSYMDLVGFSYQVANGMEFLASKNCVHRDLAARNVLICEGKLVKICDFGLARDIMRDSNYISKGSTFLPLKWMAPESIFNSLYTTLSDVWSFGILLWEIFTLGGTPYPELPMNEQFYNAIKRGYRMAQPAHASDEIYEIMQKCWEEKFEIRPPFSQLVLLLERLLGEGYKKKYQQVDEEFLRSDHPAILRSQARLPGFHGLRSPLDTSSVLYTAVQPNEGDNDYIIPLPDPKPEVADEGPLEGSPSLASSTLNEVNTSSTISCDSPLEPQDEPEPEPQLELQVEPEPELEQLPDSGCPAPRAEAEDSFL

[29] = molecular target: 3-phosphoinositide-dependent protein kinase 1 (Homo sapiens) (UniProt O15530); settings: Compound concentration 1000.0 nM
[30] = molecular target: Serine/threonine-protein kinase pim-2 (Homo sapiens) (UniProt Q9P1W9); settings: Compound concentration 1000.0 nM
Sequence of Serine/threonine-protein kinase pim-2 (Homo sapiens) (Q9P1W9 whole entry, looked up): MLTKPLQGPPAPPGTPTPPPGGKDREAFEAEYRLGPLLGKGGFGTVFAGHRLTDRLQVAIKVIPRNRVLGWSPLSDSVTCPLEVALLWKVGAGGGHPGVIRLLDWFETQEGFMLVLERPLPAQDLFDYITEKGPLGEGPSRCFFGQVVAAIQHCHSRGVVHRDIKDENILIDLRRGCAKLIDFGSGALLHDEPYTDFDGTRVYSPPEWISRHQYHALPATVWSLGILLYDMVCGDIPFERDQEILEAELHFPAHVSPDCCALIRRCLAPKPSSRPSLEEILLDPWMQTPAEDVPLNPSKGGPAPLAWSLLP

[31] = molecular target: Serine/threonine-protein kinase N1 (Homo sapiens) (UniProt Q16512); settings: Compound concentration 1000.0 nM
[32] = molecular target: cGMP-dependent protein kinase 2 (Homo sapiens) (UniProt Q13237); settings: Compound concentration 1000.0 nM
[33] = molecular target: Receptor-interacting serine/threonine-protein kinase 2 (Homo sapiens) (UniProt O43353); settings: Compound concentration 1000.0 nM
[34] = molecular target: Rho-associated protein kinase 1 (Homo sapiens) (UniProt Q13464); settings: Compound concentration 1000.0 nM
[35] = molecular target: Ribosomal protein S6 kinase alpha-5 (Homo sapiens) (UniProt O75582); settings: Compound concentration 1000.0 nM
[36] = molecular target: Serine/threonine-protein kinase SIK2 (Homo sapiens) (UniProt Q9H0K1); settings: Compound concentration 1000.0 nM
[37] = molecular target: SRSF protein kinase 2 (Homo sapiens) (UniProt P78362); settings: Compound concentration 1000.0 nM
[38] = molecular target: Serine/threonine-protein kinase TAO3 (Homo sapiens) (UniProt Q9H2K8); settings: Compound concentration 1000.0 nM
Sequence of Serine/threonine-protein kinase TAO3 (Homo sapiens) (Q9H2K8 whole entry): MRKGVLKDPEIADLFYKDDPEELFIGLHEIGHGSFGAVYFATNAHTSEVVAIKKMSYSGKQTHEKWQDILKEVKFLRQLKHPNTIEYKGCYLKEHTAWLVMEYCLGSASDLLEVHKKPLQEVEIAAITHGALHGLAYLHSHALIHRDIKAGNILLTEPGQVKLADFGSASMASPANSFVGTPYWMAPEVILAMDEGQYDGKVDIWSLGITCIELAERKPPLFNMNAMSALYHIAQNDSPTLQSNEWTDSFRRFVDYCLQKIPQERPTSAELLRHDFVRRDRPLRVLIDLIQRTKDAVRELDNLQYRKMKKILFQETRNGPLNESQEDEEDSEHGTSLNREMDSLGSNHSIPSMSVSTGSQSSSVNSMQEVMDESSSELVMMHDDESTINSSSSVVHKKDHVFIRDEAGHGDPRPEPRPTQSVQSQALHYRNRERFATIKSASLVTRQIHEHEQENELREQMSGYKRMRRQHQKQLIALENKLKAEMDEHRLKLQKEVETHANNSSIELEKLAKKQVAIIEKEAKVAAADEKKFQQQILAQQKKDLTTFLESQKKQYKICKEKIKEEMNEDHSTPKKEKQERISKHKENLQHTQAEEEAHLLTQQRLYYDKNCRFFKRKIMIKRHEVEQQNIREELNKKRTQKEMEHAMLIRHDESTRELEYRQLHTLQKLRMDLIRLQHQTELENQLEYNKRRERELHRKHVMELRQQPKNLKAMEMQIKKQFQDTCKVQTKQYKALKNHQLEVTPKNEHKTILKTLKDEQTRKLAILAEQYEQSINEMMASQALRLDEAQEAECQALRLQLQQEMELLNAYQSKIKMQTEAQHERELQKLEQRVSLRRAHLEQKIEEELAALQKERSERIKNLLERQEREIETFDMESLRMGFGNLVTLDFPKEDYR

[39] = molecular target: Tyrosine-protein kinase Tec (Homo sapiens) (UniProt P42680); settings: Compound concentration 1000.0 nM
Sequence of Tyrosine-protein kinase Tec (Homo sapiens) (P42680 whole entry): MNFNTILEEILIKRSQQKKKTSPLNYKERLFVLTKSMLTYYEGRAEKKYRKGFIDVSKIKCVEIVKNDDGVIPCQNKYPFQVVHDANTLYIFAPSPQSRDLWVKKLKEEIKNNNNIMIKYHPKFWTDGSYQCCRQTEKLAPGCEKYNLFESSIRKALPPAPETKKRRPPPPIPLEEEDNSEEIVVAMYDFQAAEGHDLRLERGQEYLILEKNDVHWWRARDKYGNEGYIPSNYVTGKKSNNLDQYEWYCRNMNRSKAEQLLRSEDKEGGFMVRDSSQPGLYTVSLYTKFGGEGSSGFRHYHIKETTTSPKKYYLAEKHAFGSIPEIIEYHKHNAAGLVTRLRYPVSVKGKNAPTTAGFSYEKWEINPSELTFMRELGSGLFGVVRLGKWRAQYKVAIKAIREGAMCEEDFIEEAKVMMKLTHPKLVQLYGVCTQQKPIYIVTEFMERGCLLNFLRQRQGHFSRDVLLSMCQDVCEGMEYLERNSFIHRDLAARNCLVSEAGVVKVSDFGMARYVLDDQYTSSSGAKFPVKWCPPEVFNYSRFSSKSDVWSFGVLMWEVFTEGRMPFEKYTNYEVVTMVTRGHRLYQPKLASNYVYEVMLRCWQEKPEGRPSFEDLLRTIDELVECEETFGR

[40] = molecular target: Tyrosine-protein kinase receptor Tie-1 (Homo sapiens) (UniProt P35590); settings: Compound concentration 1000.0 nM
[41] = molecular target: Testis-specific serine/threonine-protein kinase 1 (Homo sapiens) (UniProt Q9BXA7); settings: Compound concentration 1000.0 nM
[42] = molecular target: Serine/threonine-protein kinase WNK4 (Homo sapiens) (UniProt Q96J92); settings: Compound concentration 1000.0 nM
[43] = molecular target: Serine/threonine-protein kinase 25 (Homo sapiens) (UniProt O00506); settings: Compound concentration 1000.0 nM
[44] = molecular target: Mitogen-activated protein kinase kinase kinase 19 (Homo sapiens) (UniProt Q56UN5); settings: Compound concentration 1000.0 nM
[45] = molecular target: Sodium-dependent serotonin transporter (Homo sapiens) (UniProt P31645); settings: Compound concentration 10.0 uM
[46] = molecular target: Histamine H3 receptor (Homo sapiens) (UniProt Q9Y5N1); settings: Compound concentration 10.0 uM

O=C(Nc1ccc(Oc2ccc(F)cc2)cc1)N1CCc2ncccc2[C@H]1c1ccc(F)cc1 [BAY-897]
inactive: residual activity [1] 93% | residual activity [2] 100% | residual activity [3] 100% | residual activity [4] 70% | residual activity [5] 86% | residual activity [6] 100% | residual activity [7] 100% | residual activity [8] 100% | residual activity [9] 100% | residual activity [10] 91% | residual activity [11] 88% | residual activity [12] 91% | residual activity [13] 93% | residual activity [14] 89% | residual activity [15] 93% | residual activity [16] 79% | residual activity [17] 91% | residual activity [18] 91% | residual activity [19] 100% | residual activity [20] 78% | residual activity [21] 95% | residual activity [22] 100% | residual activity [23] 98% | residual activity [24] 93% | residual activity [25] 100% | residual activity [26] 83% | residual activity [27] 99% | residual activity [28] 100% | residual activity [29] 88% | residual activity [30] 93% | residual activity [31] 100% | residual activity [32] 100% | residual activity [33] 96% | residual activity [34] 100% | residual activity [35] 74% | residual activity [36] 100% | residual activity [37] 100% | residual activity [38] 92% | residual activity [39] 86% | residual activity [40] 85% | residual activity [41] 87% | residual activity [42] 85% | residual activity [43] 100% | residual activity [44] 88% | inhibition [45] 21.1% | inhibition [46] 3.57%

O=C(Nc1cnc(Oc2ccc(F)cc2)nc1)N1CCc2ncccc2[C@@H]1c1ccc(F)cc1 [BAY-899]
inactive: residual activity [1] 90% | residual activity [2] 100% | residual activity [3] 100% | residual activity [4] 73% | residual activity [5] 97% | residual activity [6] 94% | residual activity [7] 84% | residual activity [8] 100% | residual activity [9] 100% | residual activity [10] 98% | residual activity [11] 78% | residual activity [12] 87% | residual activity [13] 98% | residual activity [14] 100% | residual activity [15] 67% | residual activity [16] 91% | residual activity [17] 81% | residual activity [18] 77% | residual activity [19] 93% | residual activity [20] 66% | residual activity [21] 95% | residual activity [22] 77% | residual activity [23] 100% | residual activity [24] 77% | residual activity [25] 100% | residual activity [26] 100% | residual activity [27] 91% | residual activity [28] 100% | residual activity [29] 97% | residual activity [30] 94% | residual activity [31] 95% | residual activity [32] 100% | residual activity [33] 93% | residual activity [34] 100% | residual activity [35] 74% | residual activity [36] 89% | residual activity [37] 100% | residual activity [38] 100% | residual activity [39] 89% | residual activity [40] 88% | residual activity [41] 100% | residual activity [42] 81% | residual activity [43] 82% | residual activity [44] 81% | inhibition [45] 25.5% | inhibition [46] -8.41%

— ChEMBL document CHEMBL4507317, “Data for DCP probe BAY-899” (2021)
